Measurements from patent US5043328A, “Formulations containing unsaturated fatty acids for the synthesis of prostaglandins and hydroxy-fatty acids in biological systems” (priority 1986, dated 1991).
Entries after “also recorded” stand apart in the source; their conditions may differ. Like-named read-outs stand apart in the source and are kept apart here.

What was measured:
[1] = for undesired decomposition / byproducts of polyunsaturated fatty acid (arachidonic acid) with added stimulator: aqueous medium; for undesired decomposition / byproducts of polyunsaturated fatty acid (arachidonic acid) with added stimulator / effect of solvent used instead of water on formation of undesired byproducts: result in words; for effect of solvent used instead of water on formation of undesired byproducts: fatty acid with stimulator; for Stability (% of remaining arachidonic acid by Method 1): 24 h 37° C.; for Stabilization (% remaining unsaturated fatty acid by Method 1): 1440 min
Procedure: Method 1: Investigation of the Stability of Unsaturated Fatty Acids in the Formulations
The stabilizing action of substances on polyunsaturated fatty acids was investigated as follows:
Test A for Water-Soluble Substances:
0.125 mg of unsaturated fatty acid or Na salt (see tables) (sodium arachidonate, from Sigma, Munich, Germany) is dissolved in 0.05 ml of water. 0.2 ml of aqueous solution which contains 2 mg of stabilizer and can additionally contain 2 mg of stimulator is mixed in (cf. Table 1), 0.1 ml is then taken out immediately, extracted and analysed (see below). Further processing according to modification 1 or 2.
Modification 1 for Aqueous Solutions
After 24 hours incubation at 37° C., 0.1 ml is again taken, extracted and analysed (see below).
Modification 2 for Solid Mixtures (Lyophilisates)
The test solution is lyophilized, the lyophilisate is incubated for 24 hours at 37° C. and then dissolved again in the previous quantity of water, and 0.1 ml is taken, extracted and analysed (see below).
Test B for Water-Insoluble Substances:
0.125 mg of unsaturated fatty acid (arachidonic acid, 5,8,11,14,17-eicosapentaenoic acid or 8,11,14-eicosatrienoic acid, from Sigma, Munich) is dissolved in 0.05 ml of ethanol or dimethyl sulfoxide. 0.2 ml of ethanol (or dimethyl sulfoxide) which contains 2 mg of stabilizer and can additionally contain 2 mg of the stimulator (cf. Table 1) is added thereto, and 0.1 ml is taken immediately and, as below, extracted and analysed. Further treatment according to modification 1 or 2.
Modification 1 for Solutions
After 24 hours' incubation at 37° C., 0.1 ml is again taken, mixed with 0.1 ml of water, extracted and analysed.
Modification 2 for Solid Mixtures
The remaining solution is freed of solvent, incubated for 24 hours at 37° C. and then dissolved again in 0.15 ml of solvent, and 0.1 ml is taken, mixed with 0.1 ml of water, extracted and analysed.
0.05 ml of 1.2M aqueous citric acid solution is added to the samples obtained, and the samples are extracted with twice 0.5 ml of ethyl acetate, the ethyl acetate is removed from the combined extracts and the residue is dissolved in 0.8 ml of methanol and analysed by means of high-pressure liquid chromatography (HPLC) (Rad Pak C-18 column, 100×8 mm, from Waters, Konigstein, Germany, 1.5 ml/minute, solvent 800 ml of methanol, 200 ml of water and 0.1 ml of glacial acetic acid). The separation is monitored with a commercially available UV detector at 206 nm.
The prostaglandins PGE2, PGF2 alpha and PGD2 as products from arachidonic acid where quantified by means of method 2, and the sum was related as "total prostaglandin" to 100%. The quantity of "total prostaglandin" formed without the addition of a stimulator was set at f=1; the quantity formed after stimulation was related thereto. f=2 or f=3 therefore means twice or three times the stimulation under the conditions of method 2. The stability of the sample was investigated by means of method 1 (right-hand column). […] Values greater than 25-28% therefore represent a stabilization, and values smaller than 25-28% represent a destabilization. Example No. 1 was carried out without a stimulator.

[2] = molecular target: T1, enzyme (from seminal vesicles of sheep) (Ovis aries, UniProt P05979); conditions: for PGD2 % / PGE2 % / PGF2alpha %: share of total prostaglandin (=100%)
T1 sequence (P05979 25-600): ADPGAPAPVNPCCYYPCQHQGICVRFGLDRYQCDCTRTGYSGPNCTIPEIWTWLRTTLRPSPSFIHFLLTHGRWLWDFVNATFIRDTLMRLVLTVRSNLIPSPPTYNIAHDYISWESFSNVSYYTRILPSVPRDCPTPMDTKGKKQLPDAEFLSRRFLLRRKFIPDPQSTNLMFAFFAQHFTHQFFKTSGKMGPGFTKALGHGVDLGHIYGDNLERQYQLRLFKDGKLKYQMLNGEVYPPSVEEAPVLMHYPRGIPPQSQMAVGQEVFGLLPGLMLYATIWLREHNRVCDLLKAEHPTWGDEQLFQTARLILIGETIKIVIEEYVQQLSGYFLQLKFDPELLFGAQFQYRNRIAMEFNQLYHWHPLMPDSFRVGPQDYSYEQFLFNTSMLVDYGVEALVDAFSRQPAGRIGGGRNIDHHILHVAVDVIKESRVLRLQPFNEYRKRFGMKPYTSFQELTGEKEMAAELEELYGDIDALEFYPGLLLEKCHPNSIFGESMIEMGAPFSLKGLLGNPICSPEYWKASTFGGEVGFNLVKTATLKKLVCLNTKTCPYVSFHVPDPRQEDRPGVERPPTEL
Procedure: Method 2: Prostaglandin Synthesis
0.3 ml of 0.03M potassium phosphate buffer of pH=8.0 contains 0.5 mg of enzyme (from seminal vesicles of sheep) (Biochemistry 10 (1971) 2372) or homogenate of the inner kidney medulla (Life Sciences 26 (1980) 765), 2.75 μg of ^14 C-arachidonic acid (0.5 μCi) and 0.5 mg of stimulator, and, if appropriate, 0.5 mg of stabilizer substance (see Table 1). After 10 minutes' incubation at 37° C., the reaction is stopped with 0.05 ml of 1.2M citric acid and the mixture is extracted with twice 0.5 ml of ethyl acetate, the combined extracts are freed of solvent, and the residue is dissolved in 0.2 ml of methanol, diluted 1:1 with water and separated by HPLC (nucleosil C-18 column, 125×4.6 mm, from Bischoff, Leonberg, Germany, solvent 300 ml of acetonitrile, 700 ml of water and 1 ml of glacial acetic acid and after 30 minutes pure methanol). The separation of the radioactive fractions is followed by a monitor (LB 504 from Berthold, Wildbad, Germany). The products formed, such as 6-keto-prostaglandin F2alpha, prostaglandin E2, prostaglandin F2alpha and prostaglandin D2, are separated under these conditions.
The prostaglandins PGE2, PGF2 alpha and PGD2 as products from arachidonic acid where quantified by means of method 2, and the sum was related as "total prostaglandin" to 100%. The quantity of "total prostaglandin" formed without the addition of a stimulator was set at f=1; the quantity formed after stimulation was related thereto. f=2 or f=3 therefore means twice or three times the stimulation under the conditions of method 2. The stability of the sample was investigated by means of method 1 (right-hand column). […] Values greater than 25-28% therefore represent a stabilization, and values smaller than 25-28% represent a destabilization. Example No. 1 was carried out without a stimulator. […] The substances test with respect to stabilization (see Method 1 for quantities) were: A) aqueous solution without stabilizer addition, B) ethanolic solution without further addition, C) pyridine solution, D) with rutin, predissolved in dimethyl sulfoxide, dimethyl sulfoxide then stripped off, E) like B) with lecithin, ethanol stripped off, F) like A) with cytochrome c from horse heart (from Boehringer, Mannheim, Germany), G) like A) with methemoglobin (human) (from Sigman, Munich, Germany), H) like A) with bovine serum albumin (from Calbiochem, Frankfurt, Germany), J) like A) or B), but solvent stripped off, K) like J) with cytochrome c, L) like J) with hemoglobin (human) (from Behringwerke, Marburg, Germany), and M) like J) with human serum albumin (from Behringwerke, Marburg, Germany).

[3] = A) aqueous solution without stabilizer addition
[4] = B) ethanolic solution without further addition
[5] = J) like A) or B), but solvent stripped off
[6] = M) like J) with human serum albumin
[7] = H) like A) with bovine serum albumin

With `N[C@@H](Cc1c[nH]c2ccc(O)cc12)C(=O)O` [5-hydroxytryptophan, reference compound] the “undesired decomposition / byproducts of polyunsaturated fatty acid (arachidonic acid) with added stimulator” value (“undesired decomposition / byproducts” for short) [1] was “considerably accelerated”.

In the case of `CCC(C)O` (stereo not drawn) [Example 2-butanol, 2-butanol], the “effect of solvent used instead of water on formation of undesired byproducts” value (shortened to “effect of solvent used instead of water”) [1] is reported as “additional destabilizing effect”.

In the case of `NC(Cc1ccc(O)cc1)C(=O)O` (stereo not drawn) [Example 6], the “Stability (% of remaining arachidonic acid by Method 1)” value [1, 3] is reported as 91%, the “Stability (% of remaining arachidonic acid by Method 1)” value [1, 4] is reported as 100% and the “Stability (% of remaining arachidonic acid by Method 1)” value ([1]; C) pyridine solution) is reported as 67%. For the same molecule, the “Stability (% of remaining arachidonic acid by Method 1)” value [1, 5] was 98%, the “Stability (% of remaining arachidonic acid by Method 1)” value ([1]; K) like J) with cytochrome c) was 100% and the “Stability (% of remaining arachidonic acid by Method 1)” value [1, 6] was 100%. The PGD2 % ([2]; Table 1) was 17%, the PGE2 % ([2]; Table 1) was 81% and the PGF2alpha % ([2]; Table 1) was 2%.

With `NCCc1ccc(O)c(O)c1` [Example 10] the “Stability (% of remaining arachidonic acid by Method 1)” value [1, 3] was 17%, the “Stability (% of remaining arachidonic acid by Method 1)” value [1, 4] was 95% and the “Stability (% of remaining arachidonic acid by Method 1)” value ([1]; C) pyridine solution) was 9%. For the same molecule, the “Stability (% of remaining arachidonic acid by Method 1)” value [1, 7] was 100%, the “Stability (% of remaining arachidonic acid by Method 1)” value ([1]; K) like J) with cytochrome c) was 98% and the “Stability (% of remaining arachidonic acid by Method 1)” value [1, 6] was 100%. For the same molecule, the PGD2 % ([2]; Table 1) was 13%, the PGE2 % ([2]; Table 1) was 52% and the PGF2alpha % ([2]; Table 1) was 35%.

For `CC(=O)NC(Cc1ccc(O)cc1)C(N)=O` (stereo not drawn) [Example 11], the Stabilization [1] was “positive” and the Stimulation ([2]; Table 1, result in words) was “positive”.

In the case of `O=C(O)C=Cc1ccc(O)c(O)c1` [Example 17], the “Stability (% of remaining arachidonic acid by Method 1)” value [1, 3] is reported as 19%, the “Stability (% of remaining arachidonic acid by Method 1)” value ([1]; D) with rutin, predissolved in dimethyl sulfoxide, dimethyl sulfoxide then stripped off) is reported as 99% and the “Stability (% of remaining arachidonic acid by Method 1)” value ([1]; G) like A) with methemoglobin (human)) is reported as 95%. The “Stability (% of remaining arachidonic acid by Method 1)” value [1, 7] was 99%, the “Stability (% of remaining arachidonic acid by Method 1)” value [1, 5] was 16% and the “Stability (% of remaining arachidonic acid by Method 1)” value [1, 6] was 98%. The PGD2 % ([2]; Table 1) was 17%, the PGE2 % ([2]; Table 1) was 70% and the PGF2alpha % ([2]; Table 1) was 13%. For the same molecule, the “relative total prostaglandin f” value ([2]; seminal vesicle enzyme, 10 min, pH 8) was 5.7.

In the case of `OC[C@H]1O[C@@H]2O[C@H]3[C@H](O)[C@@H](O)[C@@H](O[C@H]4[C@H](O)[C@@H](O)[C@@H](O[C@H]5[C@H](O)[C@@H](O)[C@@H](O[C@H]6[C@H](O)[C@@H](O)[C@@H](O[C@H]7[C@H](O)[C@@H](O)[C@@H](O[C@H]1[C@H](O)[C@H]2O)O[C@@H]7CO)O[C@@H]6CO)O[C@@H]5CO)O[C@@H]4CO)O[C@@H]3CO` [Example 62, alpha-Dextrin (Cyclohexaamylose)], the “Stabilization (% remaining unsaturated fatty acid by Method 1)” value [1] is reported as 60%.

For `OC[C@H]1O[C@@H]2O[C@H]3[C@H](O)[C@@H](O)[C@@H](O[C@H]4[C@H](O)[C@@H](O)[C@@H](O[C@H]5[C@H](O)[C@@H](O)[C@@H](O[C@H]6[C@H](O)[C@@H](O)[C@@H](O[C@H]7[C@H](O)[C@@H](O)[C@@H](O[C@H]8[C@H](O)[C@@H](O)[C@@H](O[C@H]9[C@H](O)[C@@H](O)[C@@H](O[C@H]1[C@H](O)[C@H]2O)O[C@@H]9CO)O[C@@H]8CO)O[C@@H]7CO)O[C@@H]6CO)O[C@@H]5CO)O[C@@H]4CO)O[C@@H]3CO` [Example 64, gamma-Dextrin (Cyclooctaamylose)], the “Stabilization (% remaining unsaturated fatty acid by Method 1)” value [1] was 75%.

In the case of `CNCC(O)c1ccc(O)c(O)c1` (stereo not drawn) [adrenalin, reference compound], the “undesired decomposition / byproducts” value [1] is reported as “considerably accelerated”.

With `CCCCC/C=C\C/C=C\C/C=C\C/C=C\CCCC(=O)O` [arachidonic acid] the “Stability (% of remaining arachidonic acid by Method 1)” value [1, 3] was 25-28%.

In the case of `C[S+](C)[O-]` [dimethyl sulfoxide], the “effect of solvent used instead of water” value [1] is reported as “do not arise”.

In the case of `CCO` [ethanol], the “effect of solvent used instead of water” value [1] is reported as “do not arise”.

For `O=C[C@H](O)[C@@H](O)[C@H](O)[C@H](O)CO` [glucose, reference compound], the “stabilization of aqueous mixtures of unsaturated fatty acid and stimulators” value [1] was “not stabilizing”.

With `OCC(O)CO` [glycerol] the “effect of solvent used instead of water” value [1] was “do not arise”.

For `Oc1ccc(O)cc1` [hydroquinone, reference compound], the “undesired decomposition / byproducts” value [1] was “markedly greater quantity; also recorded: considerably accelerated”.

In the case of `NC[C@H](O)c1ccc(O)c(O)c1` [noradrenalin, reference compound], the “undesired decomposition / byproducts” value [1] is reported as “considerably accelerated”.

For `c1ccncc1` [pyridine], the “effect of solvent used instead of water” value [1] was “additional destabilizing effect”.

In the case of `OC[C@@H](O)[C@@H](O)[C@H](O)[C@@H](O)CO` [sorbitol, reference compound], the “stabilization of aqueous mixtures of unsaturated fatty acid and stimulators” value [1] is reported as “not stabilizing”.

In the case of `N[C@@H](Cc1c[nH]c2ccccc12)C(=O)O` [tryptophan, reference compound], the “undesired decomposition / byproducts” value [1] is reported as “considerably accelerated”.

For `N[C@@H](Cc1ccc(O)cc1)C(=O)O` [tyrosine], the “undesired decomposition / byproducts” value [1] was “completely stable”.

For polyethylene glycol, the “effect of solvent used instead of water” value [1] was “do not arise”.

With rhamnoglucose [reference compound] the “stabilization of aqueous mixtures of unsaturated fatty acid and stimulators” value [1] was “not stabilizing”.
